Source: ChEMBL document CHEMBL1130278, “Synthesis and structure-activity relationships of 3,7-dimethyl-1-propargylxanthine derivatives, A2A-selective adenosine receptor antagonists” (J Med Chem, 1997)

Legend:
[1] = biological target: T1, Adenosine receptor A1 (Rattus norvegicus, UniProt P25099); experiment: Ability to inhibit binding of [3H]CHA to adenosine A1 receptor in rat brain cortical membranes.; format: cell membranes, Membrane
T1 sequence (P25099 whole entry): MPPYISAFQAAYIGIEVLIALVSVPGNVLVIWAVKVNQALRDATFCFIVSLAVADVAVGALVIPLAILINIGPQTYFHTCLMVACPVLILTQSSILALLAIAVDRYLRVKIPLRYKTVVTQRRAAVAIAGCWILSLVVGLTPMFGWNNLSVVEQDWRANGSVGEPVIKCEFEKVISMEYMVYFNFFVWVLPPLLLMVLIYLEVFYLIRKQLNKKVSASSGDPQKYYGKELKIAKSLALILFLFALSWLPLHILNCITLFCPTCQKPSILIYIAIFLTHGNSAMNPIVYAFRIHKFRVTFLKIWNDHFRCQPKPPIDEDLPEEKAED

[2] = biological target: T2, Adenosine receptor A2a (Rattus norvegicus, UniProt P30543)
T2 sequence (P30543 whole entry): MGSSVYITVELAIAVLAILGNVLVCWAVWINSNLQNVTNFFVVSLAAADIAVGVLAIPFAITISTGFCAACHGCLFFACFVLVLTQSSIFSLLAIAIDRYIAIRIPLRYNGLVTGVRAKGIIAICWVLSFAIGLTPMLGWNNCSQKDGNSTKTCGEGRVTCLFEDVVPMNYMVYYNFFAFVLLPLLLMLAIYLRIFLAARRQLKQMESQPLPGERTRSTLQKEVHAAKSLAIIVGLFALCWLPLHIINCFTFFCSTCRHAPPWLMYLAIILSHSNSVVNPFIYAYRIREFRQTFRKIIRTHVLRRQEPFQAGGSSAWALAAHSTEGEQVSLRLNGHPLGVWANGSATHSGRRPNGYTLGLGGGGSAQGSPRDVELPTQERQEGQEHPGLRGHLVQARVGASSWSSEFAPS
Description: Ability to inhibit binding of [3H]-CGS- 21680 to adenosine A2A receptor in rat brain striatal membranes.

[3] = biological target: T2, Adenosine receptor A2a; remark: listed apart in the source
Description: Ability to inhibit binding of [3H]NECA to Adenosine A2A receptor in rat brain striatal membranes

[4] = biological target: T1, Adenosine receptor A1; experiment: Ability to inhibit binding of [3H]R-PIA to Adenosine A1 receptor in rat brain cortical membranes; format: cell membranes, Membrane
[5] = biological target: T3, Adenosine receptor A2b (Homo sapiens, UniProt P29275); experiment: Binding affinity for human Adenosine A2B receptor at 10 uM; IA = Inactive
T3 sequence (P29275 whole entry): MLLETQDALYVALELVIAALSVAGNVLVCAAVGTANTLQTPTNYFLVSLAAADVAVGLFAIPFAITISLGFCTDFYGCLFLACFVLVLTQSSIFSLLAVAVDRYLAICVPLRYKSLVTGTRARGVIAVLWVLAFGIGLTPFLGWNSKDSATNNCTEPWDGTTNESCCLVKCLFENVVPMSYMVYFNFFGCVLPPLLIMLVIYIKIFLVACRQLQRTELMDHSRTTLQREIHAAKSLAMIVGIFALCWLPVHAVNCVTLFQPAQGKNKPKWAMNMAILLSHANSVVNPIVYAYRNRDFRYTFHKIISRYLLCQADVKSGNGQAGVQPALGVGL

[6] = biological target: T4, Adenosine receptor A3 (Homo sapiens, UniProt P0DMS8); experiment: Binding affinity for human Adenosine A3 receptor at 10 uM; IA = Inactive
T4 sequence (P0DMS8 whole entry): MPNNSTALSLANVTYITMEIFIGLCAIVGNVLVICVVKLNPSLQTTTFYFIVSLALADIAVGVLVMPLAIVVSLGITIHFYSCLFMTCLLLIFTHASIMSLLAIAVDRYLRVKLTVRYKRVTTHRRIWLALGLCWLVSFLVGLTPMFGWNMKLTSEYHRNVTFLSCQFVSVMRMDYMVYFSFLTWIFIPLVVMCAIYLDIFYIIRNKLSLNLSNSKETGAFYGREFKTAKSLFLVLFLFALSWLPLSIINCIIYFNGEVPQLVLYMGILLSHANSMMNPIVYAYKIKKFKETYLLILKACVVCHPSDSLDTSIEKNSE

[7] = biological target: T5, Adenosine receptor A3 (Rattus norvegicus, UniProt P28647); experiment: Inhibitory activity against rat adenosine A3 receptor; inactive up to 10 uM concentration; IA = Inactive
T5 sequence (P28647 whole entry): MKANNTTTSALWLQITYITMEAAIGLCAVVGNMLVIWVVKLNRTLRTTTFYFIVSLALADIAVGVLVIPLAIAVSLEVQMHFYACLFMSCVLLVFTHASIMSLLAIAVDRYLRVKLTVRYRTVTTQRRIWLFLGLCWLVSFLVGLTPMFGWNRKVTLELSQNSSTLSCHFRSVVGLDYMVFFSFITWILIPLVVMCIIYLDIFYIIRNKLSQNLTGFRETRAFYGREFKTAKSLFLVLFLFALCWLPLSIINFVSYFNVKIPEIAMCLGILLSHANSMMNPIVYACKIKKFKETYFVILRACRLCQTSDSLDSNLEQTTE

[8] = biological target: T6, Adenosine receptor A1 (Rattus norvegicus) (UniProt P25099); experiment: Inhibition of [3H]CHA binding to Adenosine A1 receptor of rat brain cortical membranes; format: cell membranes; settings: Membrane, concentration not given here
T6 sequence (whole entry): T1 sequence (P25099 whole entry)

SMILES	Ki [1]	Ki [2]	other results
C#CCn1c(=O)c2c(nc(/C=C/c3ccco3)n2C)n(C)c1=O	1900 nM	250 nM	–
C#CCn1c(=O)c2c(nc(/C=C/c3ccccc3)n2C)n(C)c1=O	1100 nM	27 nM	Ki [3]: 140 nM; Ki [4]: 2700 nM
CCCn1c(=O)c2c(nc(/C=C/c3ccc(OC)c(OC)c3)n2C)n(CCC)c1=O	260 nM	–	–
C#CCn1c(=O)c2[nH]c(/C=C/c3ccc4c(c3)OCO4)nc2n(C)c1=O	840 nM	170 nM	–
C#CCn1c(=O)c2c(nc(/C=C/c3ccsc3)n2C)n(C)c1=O	750 nM	24 nM	–
C#CCn1c(=O)c2c(nc(/C=C/c3cccc(Cl)c3)n2C)n(C)c1=O	1300 nM	13 nM	Ki [3]: 47 nM; Ki [4]: 2500 nM
C#CCn1c(=O)c2c(nc(/C=C/c3cccc(Br)c3)n2C)n(C)c1=O	1200 nM	8.2 nM	Ki [5]: Not Active; Ki [6]: Not Active
C=CCn1c(=O)c2c(nc(/C=C/c3ccccc3)n2C)n(C)c1=O	9200 nM	63 nM	–
C#CCn1c(=O)c2c(nc(/C=C/c3cccc(Cl)c3)n2C)n(CCC)c1=O	102 nM	5.1 nM	–
C#CCn1c(=O)c2c(nc(C3CCCCC3)n2C)n(C)c1=O	2800 nM	4500 nM	–
C#CCn1c(=O)[nH]c2nc(-c3cccs3)[nH]c2c1=O	180 nM	560 nM	Ki [3]: 5100 nM; Ki [4]: 120 nM
C#CCn1c(=O)c2c(ncn2C)n(C)c1=O	12000 nM	8600 nM	–
CC(C)Cn1c(=O)n(C)c(=O)c2c1nc(-c1ccccc1)n2C	4400 nM	14000 nM	–
C#CCn1c(=O)c2c(nc(/C=C/c3cccs3)n2C)n(C)c1=O	4100 nM	340 nM	–
C#CCn1c(=O)c2[nH]cnc2n(C)c1=O	–	–	Ki [3]: 4800 nM
C#CCn1c(=O)c2c(nc(/C=C/c3ccc(OC)c(OC)c3)n2C)n(C)c1=O	2500 nM	15 nM	–

SMILES	Ki [1]	Ki [2]	other results
C#CCn1c(=O)c2c(nc(/C=C/c3cccc(Cl)c3)n2CC#C)n(C)c1=O	200 nM	61 nM	–
Cn1c(=O)c2c(nc(-c3ccccc3)n2C)n(C)c1=O	33000 nM	19000 nM	Ki [3]: 25000 nM
C#CCn1c(=O)c2c(nc(/C=C/c3cccc(Cl)c3)n2C)n(CC(C)C)c1=O	240 nM	15 nM	–
C#CCn1c(=O)[nH]c2[nH]c(/C=C/c3ccccc3)nc2c1=O	1300 nM	310 nM	Ki [3]: 1900 nM; Ki [4]: 2100 nM
C#CCn1c(=O)c2[nH]c(/C=C/c3cccc(Cl)c3)nc2n(CC(C)C)c1=O	83 nM	46 nM	–
CCCn1c(=O)c2c(nc(/C=C/c3cccc(Cl)c3)n2C)n(C)c1=O	540 nM	31 nM	–
Cn1c(=O)c2c(nc(/C=C/c3cccc(Cl)c3)n2C)n(C)c1=O	–	–	Ki [7]: Not Active; inhibition [8]: 17%
C#CCn1c(=O)c2c(nc(/C=C/c3cccc(Cl)c3)n2C)n(Cc2ccccc2)c1=O	2300 nM	68 nM	–
C#CCn1c(=O)c2[nH]c(/C=C/c3cccc(Cl)c3)nc2n(C)c1=O	–	–	Ki [3]: 410 nM; Ki [4]: 250 nM
C#CCn1c(=O)c2c(nc(/C=C/c3ccc4c(c3)OCO4)n2C)n(C)c1=O	1500 nM	35 nM	–
C#CCn1c(=O)c2[nH]cnc2n(Cc2ccccc2)c1=O	860 nM	880 nM	–
COc1ccc(/C=C/c2nc3c(c(=O)n(C)c(=O)n3C)n2C)cc1OC	9600 nM	18 nM	–
C#CCn1c(=O)c2c(nc(-c3ccccc3)n2C)n(C)c1=O	3200 nM	3300 nM	Ki [3]: 6400 nM
C#CCn1c(-c2ccccc2)nc2c1c(=O)n(C)c(=O)n2CC(C)C	2800 nM	3500 nM	–
C#CCn1c(=O)c2c(nc(-c3cccs3)n2C)n(C)c1=O	950 nM	1800 nM	–
